# Data as given in patent US6610670B2, “Cyclodextrin-drospirenone inclusion complexes” (Schering Aktiengesellschaft, priority 2000, dated 2003).
# Test: Phase solubility diagram technique (PSD) in aqueous solutions at 20° C.
# Type: physicochemical
# Details: water, thermodynamic from solid, aqueous solution
# Method: The following data were obtained with the phase solubility diagram technique (PSD) In aqueous solutions at 20° C. The stability constants of the inclusion compound from β-CD and drospirenone are given.
structure (smiles),measurement,setting,value
"C[C@]12CCC(=O)C=C1[C@@H]1C[C@@H]1[C@H]1[C@@H]3[C@@H]4C[C@@H]4[C@@]4(CCC(=O)O4)[C@@]3(C)CC[C@@H]12 [Drospirenone, 6β,7β;15β,16β-dimethylene-3-oxo-17α-pregn-4-ene-21,17-carbolactone]",solubility,,41.4 µM
same,solubility,value in parentheses,15.1 µg/mL
